Measured values: US7695908B2, “Methods for predicting methotrexate polyglutamate levels using pharmacogenetics” (Prometheus Laboratories Inc., priority 2004, dated 2010)

Experiment: HPLC quantification of red blood cell MTXPG concentrations in rheumatoid arthritis patients on low-dose MTX therapy, with regression on age, dose, route and RFC-1/GGH genotype
Format: in vivo, human
Conditions: multivariate linear regression, route p<0.04
Protocol: The study was cross-sectional at three investigational sites (The Center of Rheumatology, Albany, N.Y.; Rheumatology Practice, Knoxville, Tenn.; Radiant Research, Daytona Beach, Fla.). To be eligible, patients (≧18 yrs.) had to meet the revised criteria of the American Rheumatism Association for Rheumatoid Arthritis and had to have received low-dose MTX therapy for at least three months. Other medications included low-dose corticosteroids (<10 mg day) and folic acid supplementation for the prevention of side-effects induced by MTX. Local Institutional Review Board approved the study and patient consent was obtained for each patient. Patients' demographics were collected at the time of enrollment in the study. Blood was drawn in EDTA-containing tubes and shipped overnight to Prometheus Laboratories Inc. (San Diego, Calif.) for analysis.
Red blood cell MTXPG concentrations were measured as described previously using an HPLC-fluorometry procedure with a post-column photo-oxidation technique (Dervieux et al., Clin. Chem., 49:1632-1641 (2003)). Results are expressed in nmol/L as either total MTXPG1-5 levels or total long-chain MTXG3-5 levels (i.e., the sum of MTXP3+MTXPG4+MTXPG5 levels).
The statistical analysis consisted of a multivariate linear or logistic regression, with MTXPG levels (i.e., MTXPG1-5, MTXPG3-5) as dependent variables and predictors (i.e., age, weekly MTX dose, route of administration, and RFC-1 and GGH genotypes) as independent variables. For calculating a pharmacogenetic index, the genotypes were dichotomized as homozygous mutants (RFC-1 80A/A and GGH −401T/T; value of 1) versus wild-type or heterozygous (RFC-1 80G/G or 80G/A and GGH −401C/C or −401C/T; value of 0) as appropriate. Group comparisons were performed with the Kruskall-Wallis ANOVA. The likelihood of having MTXPG levels above group median was derived from the logistic regression model. Odds ratio (OR) and probability (P) are given with a 95% confidence interval (CI). Estimates are given with standard error.

Compound | RBC MTXPG levels after injected MTX compared to oral administration
CN(Cc1cnc2nc(N)nc(N)c2n1)c1ccc(C(=O)N[C@@H](CCC(=O)O)C(=O)O)cc1 [MTX, methotrexate] | higher MTXPG levels

Same assay, conditions: unadjusted, Kruskall-Wallis; FIG. 3

Compound | Change of RBC level with increased pharmacogenetic index (PI, from −1 to 1)
CN(Cc1cnc2nc(N)nc(N)c2n1)c1ccc(C(=O)NC(CCC(=O)NC(CCC(=O)O)C(=O)O)C(=O)O)cc1 (stereo not drawn) [MTXPG2] | no significant differences
CN(Cc1cnc2nc(N)nc(N)c2n1)c1ccc(C(=O)N[C@@H](CCC(=O)O)C(=O)O)cc1 [MTX, methotrexate] | no significant differences
CN(Cc1cnc2nc(N)nc(N)c2n1)c1ccc(C(=O)N[C@@H](CCC(=O)N[C@@H](CCC(=O)N[C@@H](CCC(=O)O)C(=O)O)C(=O)O)C(=O)O)cc1 [MTXPG3] | increased

The remaining lines, values ahead:

Change of RBC level with increased pharmacogenetic index (PI, from −1 to 1) | Compound
increased | CN(Cc1cnc2nc(N)nc(N)c2n1)c1ccc(C(=O)NC(CCC(=O)NC(CCC(=O)NC(CCC(=O)NC(CCC(=O)NC(CCC(=O)O)C(=O)O)C(=O)O)C(=O)O)C(=O)O)C(=O)O)cc1 (stereo not drawn) [MTXPG5]
increased | CN(Cc1cnc2nc(N)nc(N)c2n1)c1ccc(C(=O)N[C@@H](CCC(=O)N[C@@H](CCC(=O)N[C@@H](CCC(=O)N[C@@H](CCC(=O)O)C(=O)O)C(=O)O)C(=O)O)C(=O)O)cc1 [MTXPG4]
